Source: patent publication US9453026B2, “ACC inhibitors and uses thereof” (Gilead Apollo, Inc., priority 2011, dated 2016)

These molecules were tested against ACC2 (Homo sapiens, UniProt O00763) (assay: In vitro ACC2 inhibition assay (ADP-Glo)). Conditions: read-out: ACC2.
Format: biochemical
Procedure: An exemplary procedure for the in vitro ACC inhibition assay, which can be used to determine the inhibitory action of compounds of the invention toward either ACC1 or ACC2, follows. The ADP-Glo™ Kinase Assay kit from Promega was used. The ADP-Glo™ Kinase Assay is a luminescent ADP detection assay to measure enzymatic activity by quantifying the amount of ADP produced during an enzyme reaction. The assay is performed in two steps; first, after the enzyme reaction, an equal volume of ADP-Glo™ Reagent is added to terminate the reaction and deplete the remaining ATP. Second, the Kinase Detection Reagent is added to simultaneously convert ADP to ATP and allow the newly synthesized ATP to be measured using a luciferase/luciferin reaction. Luminescence can be correlated to ADP concentrations by using an ATP-to-ADP conversion curve. The detailed procedure is as follows. 50 μL of the compound being tested (600 uM in DMSO) was added to a 384-well dilution plate. The compound was diluted 1:3 in succession in DMSO for each row for 11 wells. 0.5 μL ACC2 working solution was added to 384-well white Optiplate assay plate. 0.5 μL diluted compound solution in each column from step 2 to assay plate, each row containing 2 replicates. […] The plates were incubated at room temperature for 15 minutes. 5 μL substrate working solution was added to each well to initiate reaction. […] Plates were incubated at room temperature for 60 minutes. 10 μL ADP glo reagent was added. Plates were incubated at room temperature for 40 minutes. 20 μL kinase detection reagent was added.
Data for each concentration, as well as the positive and negative controls were averaged, and the standard deviation calculated. Percent inhibition was calculated by the formula: 100× (average negative control−compound)/(average negative control−average positive control). The IC50 for each compound was calculated by fitting the data with a non-linear regression equation: Y=Bottom+(Top-Bottom)/(1+10^((Log IC50−X)*HillSlope)), where X is the log of compound concentration and Y is percent inhibition.
The compound numbers correspond to the compound numbers in Table 1.

Sequence of ACC2 (O00763 whole entry, species assumed): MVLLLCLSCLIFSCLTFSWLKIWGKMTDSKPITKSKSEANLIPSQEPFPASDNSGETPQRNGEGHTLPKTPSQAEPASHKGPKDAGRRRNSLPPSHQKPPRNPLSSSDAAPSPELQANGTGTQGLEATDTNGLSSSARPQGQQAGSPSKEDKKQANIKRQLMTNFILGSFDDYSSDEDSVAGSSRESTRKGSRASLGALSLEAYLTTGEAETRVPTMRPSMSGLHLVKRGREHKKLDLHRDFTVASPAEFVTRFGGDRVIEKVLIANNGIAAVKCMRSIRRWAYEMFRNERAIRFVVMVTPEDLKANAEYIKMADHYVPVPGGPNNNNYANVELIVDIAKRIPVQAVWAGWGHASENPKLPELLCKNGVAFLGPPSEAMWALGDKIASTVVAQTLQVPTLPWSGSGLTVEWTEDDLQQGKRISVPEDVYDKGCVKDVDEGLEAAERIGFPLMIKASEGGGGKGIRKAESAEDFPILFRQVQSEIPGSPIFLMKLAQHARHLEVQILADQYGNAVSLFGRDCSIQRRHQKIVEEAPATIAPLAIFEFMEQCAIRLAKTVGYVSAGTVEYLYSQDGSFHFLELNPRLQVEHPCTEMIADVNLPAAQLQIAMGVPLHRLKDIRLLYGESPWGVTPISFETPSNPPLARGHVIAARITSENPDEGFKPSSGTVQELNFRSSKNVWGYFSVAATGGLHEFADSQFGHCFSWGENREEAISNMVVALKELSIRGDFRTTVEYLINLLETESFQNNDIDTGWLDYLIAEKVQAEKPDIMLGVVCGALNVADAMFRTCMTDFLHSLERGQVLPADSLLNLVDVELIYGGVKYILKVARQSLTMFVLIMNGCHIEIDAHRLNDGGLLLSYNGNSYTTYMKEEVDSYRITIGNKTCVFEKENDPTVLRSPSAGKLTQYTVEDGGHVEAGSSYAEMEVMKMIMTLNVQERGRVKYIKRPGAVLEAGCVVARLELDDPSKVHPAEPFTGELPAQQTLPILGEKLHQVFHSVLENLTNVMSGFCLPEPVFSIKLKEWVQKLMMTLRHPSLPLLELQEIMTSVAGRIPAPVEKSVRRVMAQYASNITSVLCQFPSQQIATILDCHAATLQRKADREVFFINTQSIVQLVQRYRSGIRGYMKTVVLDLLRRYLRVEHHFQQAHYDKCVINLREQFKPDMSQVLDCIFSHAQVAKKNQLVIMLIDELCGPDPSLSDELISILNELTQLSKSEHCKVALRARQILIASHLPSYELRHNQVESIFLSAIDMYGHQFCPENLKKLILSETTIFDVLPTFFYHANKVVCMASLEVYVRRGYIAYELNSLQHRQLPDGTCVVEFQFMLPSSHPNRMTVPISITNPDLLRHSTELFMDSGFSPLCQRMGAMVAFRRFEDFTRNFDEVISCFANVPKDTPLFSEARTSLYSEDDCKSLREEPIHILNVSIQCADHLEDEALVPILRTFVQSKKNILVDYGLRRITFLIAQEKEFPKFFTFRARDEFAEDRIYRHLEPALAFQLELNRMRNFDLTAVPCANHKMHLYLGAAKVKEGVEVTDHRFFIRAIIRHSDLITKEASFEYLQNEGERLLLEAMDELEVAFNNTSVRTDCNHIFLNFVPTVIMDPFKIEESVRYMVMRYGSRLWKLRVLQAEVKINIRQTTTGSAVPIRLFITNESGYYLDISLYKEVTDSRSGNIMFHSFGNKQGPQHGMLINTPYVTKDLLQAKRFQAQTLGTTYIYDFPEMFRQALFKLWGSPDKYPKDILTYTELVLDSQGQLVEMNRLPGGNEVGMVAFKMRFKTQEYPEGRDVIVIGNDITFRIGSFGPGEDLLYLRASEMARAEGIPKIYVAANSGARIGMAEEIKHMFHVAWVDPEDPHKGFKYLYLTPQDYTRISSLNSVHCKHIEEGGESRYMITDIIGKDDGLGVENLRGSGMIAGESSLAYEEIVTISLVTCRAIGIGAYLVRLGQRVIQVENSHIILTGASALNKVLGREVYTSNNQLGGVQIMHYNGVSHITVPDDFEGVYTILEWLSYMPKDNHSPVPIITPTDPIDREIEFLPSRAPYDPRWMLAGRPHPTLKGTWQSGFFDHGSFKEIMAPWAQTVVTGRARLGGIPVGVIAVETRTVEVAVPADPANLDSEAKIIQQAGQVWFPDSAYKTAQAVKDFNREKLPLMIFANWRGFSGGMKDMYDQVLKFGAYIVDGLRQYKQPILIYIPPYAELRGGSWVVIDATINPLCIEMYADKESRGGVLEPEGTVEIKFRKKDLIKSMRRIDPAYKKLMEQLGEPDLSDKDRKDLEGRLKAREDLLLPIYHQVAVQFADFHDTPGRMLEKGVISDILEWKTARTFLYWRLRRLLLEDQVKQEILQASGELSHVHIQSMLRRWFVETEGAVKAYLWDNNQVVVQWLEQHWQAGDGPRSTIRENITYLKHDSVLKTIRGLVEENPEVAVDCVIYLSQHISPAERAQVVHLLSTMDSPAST

`Cc1c(-c2ncco2)sc2c1c(=O)n(C(C)(C)C(=O)O)c(=O)n2C[C@H](O[C@H]1CC[C@@](C)(O)CC1)c1ccccc1` [I-168, 2-(1-((R)-2-(((1s,4S)-4-hydroxy-4-methylcyclohexyl)oxy)-2-phenylethyl)-5-methyl-6-(oxazol-2-yl)-2,4-doxo-1,2-dihydrothieno[2,3-d]pyrimidin-3(4H)-yl)-2-methylpropanoic acid] and `Cc1c(-c2ncco2)sc2c1c(=O)n(C(C)(C)C(=O)O)c(=O)n2C[C@H](O[C@H]1CCC[C@@H](O)C1)c1ccccc1` [I-173, 2-(1-((R)-2-(((1S,3R)-3-hydroxycyclohexyl)oxy)-2-phenylethyl)-5-methyl-6-(oxazol-2-yl)-2,4-dioxo-1,2-dihydrothieno[2,3-d]pyrimidin-3(4H)-yl)-2-methylpropanoic acid] cannot be ordered by IC50: under 1 µM for the first, under 1 µM for the second.

`Cc1c(-n2nccn2)sc2c1c(=O)n(C(C)(C)C(=O)O)c(=O)n2CCc1ccccc1` [I-122, 2-methyl-2-[5-methyl-2,4-dioxo-1-(2-phenylethyl)-6-(2H-1,2,3-triazol-2-yl)-1H,2H,3H,4H-thieno[2,3-d]pyrimidin-3-yl]propanoic acid] and `Cc1c(-n2cccn2)sc2c1c(=O)n(C(C)(C)C(=O)O)c(=O)n2CCc1ccccc1` [I-116, 2-methyl-2-[5-methyl-2,4-dioxo-1-(2-phenylethyl)-6-(1H-pyrazol-1-yl)-1H,2H,3H,4H-thieno[2,3-d]pyrimidin-3-yl]propanoic acid] cannot be ordered by IC50: under 1 µM for the first, under 5 µM for the second.

Compared with `CCCn1c(=O)c2c(C)c(C(=O)OCC)sc2n(CCc2ccccc2)c1=O` [I-9, ethyl 5-methyl-2,4-dioxo-1-(2-phenylethyl)-3-propyl-1H,2H,3H,4H-thieno[2,3-d]pyrimidine-6-carboxylate], `CCOC(=O)c1sc2c(c1C)c(=O)n(C[C@H](C)O)c(=O)n2CCc1ccccc1` [I-82, ethyl 3-[(2S)-2-hydroxypropyl]-5-methyl-2,4-dioxo-1-(2-phenylethyl)-1H,2H,3H,4H-thieno[2,3-d]pyrimidine-6-carboxylate] is lower in IC50: over 50 µM for the first, 5 to 20 µM for the second. The second is the more potent here.

`CCOC(=O)c1sc2c(c1C)c(=O)n(C(C)(C)C(=O)O)c(=O)n2C[C@@H](OCC(C)C)c1ccccc1` [I-124, 2-[6-(ethoxycarbonyl)-5-methyl-1-[(2S)-2-(2-methylpropoxy)-2-phenylethyl]-2,4-dioxo-1H,2H,3H,4H-thieno[2,3-d]pyrimidin-3-yl]-2-methylpropanoic acid] and `CCOC(=O)c1sc2c(c1C)c(=O)n(C(C)(C)C(=O)O)c(=O)n2C[C@@H](OC)c1ccccc1` [I-111, 2-[6-(ethoxycarbonyl)-1-[(2S)-2-methoxy-2-phenylethyl]-5-methyl-2,4-dioxo-1H,2H,3H,4H-thieno[2,3-d]pyrimidin-3-yl]-2-methylpropanoic acid] fall in the same range of IC50: 5 to 20 µM for the first, 5 to 20 µM for the second.

First: CCOC(=O)c1sc2c(c1C)c(=O)n(CC(=O)O)c(=O)n2C[C@@H](O)c1ccccc1 [I-77, 2-[6-(ethoxycarbonyl)-1-[(2S)-2-hydroxy-2-phenylethyl]-5-methyl-2,4-dioxo-1H,2H,3H,4H-thieno[2,3-d]pyrimidin-3-yl]acetic acid]
Second: CCOC(=O)c1sc2c(c1C)c(=O)n(C(C)(C)C(=O)O)c(=O)n2CC(O)c1ccccc1 (stereo in doubt) [I-103, 2-[6-(ethoxycarbonyl)-1-[(2S)-2-hydroxy-2-phenylethyl]-5-methyl-2,4-dioxo-1H,2H,3H,4H-thieno[2,3-d]pyrimidin-3-yl]-2-methylpropanoic acid]
The IC50 of the first is higher: 5 to 20 µM for the first, under 1 µM for the second.

Compared with `CNC(=O)c1sc2c(c1C)c(=O)n(CCO)c(=O)n2CCc1ccccc1` [I-27], `COC(=O)c1sc2c(c1C)c(=O)n(CCO)c(=O)n2CCc1ccccc1` [I-37, methyl 3-(2-hydroxyethyl)-5-methyl-2,4-dioxo-1-(2-phenylethyl)-1H,2H,3H,4H-thieno[2,3-d]pyrimidine-6-carboxylate] is lower in IC50: over 50 µM for the first, 5 to 20 µM for the second.

First: CCOC(=O)c1sc2c(c1C)c(=O)n(CCO)c(=O)n2CCc1ccc2ccccc2c1 [I-30, ethyl 3-(2-hydroxyethyl)-5-methyl-1-[2-(naphthalen-2-yl)ethyl]-2,4-dioxo-1H,2H,3H,4H-thieno[2,3-d]pyrimidine-6-carboxylate]
Second: CCOC(=O)c1sc2c(c1C)c(=O)n(CCO)c(=O)n2CCc1ccc(F)cc1 [I-26, ethyl 1-[2-(4-fluorophenyl)ethyll]-3-(2-hydroxyethyl)-5-methyl-2,4-dioxo-1H,2H,3H,4H-thieno[2,3-d]pyrimidine-6-carboxylate]
The IC50 of the first is higher: over 50 µM for the first, 5 to 20 µM for the second.

`Cc1c(-c2ncco2)sc2c1c(=O)n(C(C)(C)C(=O)O)c(=O)n2C[C@H](OCC(F)(F)F)c1ccccc1` [I-137, 2-methyl-2-[5-methyl-6-(1,3-oxazol-2-yl)-2,4-dioxo-1-[2-phenyl-2-(2,2,2-trifluoroethoxy)ethyl]-1H,2H,3H,4H-thieno[2,3-d]pyrimidin-3-yl]propanoic acid] and `Cc1c(-c2ncco2)sc2c1c(=O)n(C(C)(C)C(=O)O)c(=O)n2C[C@H](OC[C@@H](C)CO)c1ccccc1` [I-171, 2-(1-((R)-2-((S)-3-hydroxy-2-methylpropoxy)-2-phenylethyl)-5-methyl-6-(oxazol-2-yl)-2,4-dioxo-1,2-dihydrothieno[2,3-d]pyrimidin-3(4H)-yl)-2-methylpropanoic acid] cannot be ordered by IC50: under 1 µM for the first, under 1 µM for the second.

`Cc1c(-c2nccs2)sc2c1c(=O)n(C(C)(C)C(=O)O)c(=O)n2C[C@H](OC(C)C)c1ccccc1` [I-141, 2-methyl-2-[5-methyl-2,4-dioxo-1-[(2R)-2-phenyl-2-(propan-2-yloxy)ethyl]-6-(1,3-thiazol-2-yl)-1H,2H,3H,4H-thieno[2,3-d]pyrimidin-3-yl]propanoic acid] and `Cc1c(-c2ncc(Cl)o2)sc2c1c(=O)n(C(C)(C)C(=O)O)c(=O)n2C[C@H](OC(C)C)c1ccccc1` [I-156, 2-[6-(5-chloro-1,3-oxazol-2-yl)-5-methyl-2,4-dioxo-1-[(2R)-2-phenyl-2-(propan-2-yloxy)ethyl]-1H,2H,3H,4H-thieno[2,3-d]pyrimidin-3-yl]-2-methylpropanoic acid] cannot be ordered by IC50: under 5 µM for the first, under 5 µM for the second.

First: Cc1c(C(=O)OC2CCC2)sc2c1c(=O)n(CC(=O)O)c(=O)n2CCc1ccccc1 [I-86, 2-[6-(cyclobutoxycarbonyl)-5-methyl-2,4-dioxo-1-(2-phenylethyl)-1H,2H,3H,4H-thieno[2,3-d]pyrimidin-3-yl]acetic acid]
Second: Cc1c(C(=O)OCCO)sc2c1c(=O)n(CC(=O)O)c(=O)n2CCc1ccccc1 [I-83, 2-[6-[(2-hydroxyethoxy)carbonyl]-5-methyl-2,4-dioxo-1-(2-phenylethyl)-1H,2H,3H,4H-thieno[2,3-d]pyrimidin-3-yl]acetic acid]
The IC50 of the first is higher: 5 to 20 µM for the first, under 5 µM for the second.

First: CCOC(=O)c1sc2c(c1C)c(=O)n(C(C)(C)C(=O)O)c(=O)n2CCc1ccc(I)cc1 [I-95, 2-[6-(ethoxycarbonyl)-1-[2-(4-iodophenyl)ethyl]-5-methyl-2,4-dioxo-1H,2H,3H,4H-thieno[2,3-d]pyrimidin-3-yl]-2-methylpropanoic acid]
Second: CCOC(=O)c1sc2c(c1C)c(=O)n(CC(=O)O)c(=O)n2CCc1ccc(I)cc1 [I-53, 2-[6-(ethoxycarbonyl)-1-[2-(4-iodophenyl)ethyl]-5-methyl-2,4-dioxo-1H,2H,3H,4H-thieno[2,3-d]pyrimidin-3-yl]acetic acid]
The IC50 of the first is higher: 20 to 50 µM for the first, 5 to 20 µM for the second.

`Cc1c(-c2ncco2)sc2c1c(=O)n(C(C)(C)C(=O)O)c(=O)n2C[C@H](Oc1ccc(F)cc1)c1ccccc1` [I-149, (R)-2-(1-(2-(4-fluorophenoxy)-2-phenylethyl)-5-methyl-6-(oxazol-2-yl)-2,4-dioxo-1,2-dihydrothieno[2,3-d]pyrimidin-3(4H)-yl)-2-methylpropanoic acid] and `COc1ccccc1[C@H](Cn1c(=O)n(C(C)(C)C(=O)NS(C)(=O)=O)c(=O)c2c(C)c(-c3ncco3)sc21)OC(C)C` [I-240, N-methanesulfonyl-2-[1-[(2R)-2-(2-methoxyphenyl)-2-(propan-2-yloxy)ethyl]-5-methyl-6-(1,3-oxazol-2-yl)-2,4-dioxo-1H,2H,3H,4H-thieno[2,3-d]pyrimidin-3-yl]-2-methylpropanamide] cannot be ordered by IC50: under 1 µM for the first, under 0.1 µM for the second.

First: Cc1c(C(=O)NCCO)sc2c1c(=O)n(CCO)c(=O)n2CCc1ccccc1 [I-57]
Second: CCOC(=O)c1sc2c(c1C)c(=O)n(CC(C)O)c(=O)n2CCc1ccccc1 (stereo not shown) [I-62, ethyl 3-(2-hydroxypropyl)-5-methyl-2,4-dioxo-1-(2-phenylethyl)-1H,2H,3H,4H-thieno[2,3-d]pyrimidine-6-carboxylate]
The IC50 of the first is higher: over 50 µM for the first, 5 to 20 µM for the second. The second is the more potent here.

First: CCCc1ccccc1CCn1c(=O)n(C(C)(C)C(N)=O)c(=O)c2c(C)c(-c3ncco3)sc21 [I-151, 2-methyl-2-[5-methyl-6-(1,3-oxazol-2-yl)-2,4-dioxo-1-[2-(2-propylphenyl)ethyl]-1H,2H,3H,4H-thieno[2,3-d]pyrimidin-3-yl]propanamide]
Second: O=c1c2ccsc2n(CCc2ccccc2)c(=O)n1CCO [I-59]
The IC50 of the first is lower: under 1 µM for the first, over 50 µM for the second. The first is the more potent here.
